Experimental data reported in patent US8653242B2, “Therapeutic antibodies against flagellated Pseudomonas aeruginosa” (priority 2010, dated 2014).
In brackets after ≈: the same amount, converted by molar mass. Like-named read-outs stand apart in the source and are kept apart here.

Test system: Ka02 multi-drug resistant P. Aeruginosa strain
Assay: Antibiogram of Ka02 (Vitek MIC); on Final (sensitive/resistant call): key: S = antibiotic sensitive; R = antibiotic resistance
Assay type: cell-based
Set-up: MIC site #2: unit not given here
Details: for Vitek (sensitive/resistant call): calls of the two sites; for MIC: Pseudomonas aeruginosa
[1] = read-out: MIC site #2, heading: MIC site #2, Ka02, Vitek, testing site #2
[2] = read-out: MIC site #1, heading: MIC site #1, Ka02, Vitek, testing site #1

Molecule: Piperacillin/Tazobactam
- Final (sensitive/resistant call) (Ka02): R
- Vitek (sensitive/resistant call) (Ka02): R/R

Molecule: CN(C)c1ccc(O)c2c1C[C@H]1C[C@H]3[C@H](N(C)C)C(O)=C(C(N)=O)C(=O)[C@@]3(O)C(O)=C1C2=O [Minocycline]
- Final (sensitive/resistant call) (Ka02): R

Molecule: CO/N=C(\C(=O)N[C@@H]1C(=O)N2C(C(=O)[O-])=C(C[N+]3(C)CCCC3)CS[C@H]12)c1csc(N)n1 [Cefepime]
- Final (sensitive/resistant call) (Ka02): R
- Vitek (sensitive/resistant call) (Ka02): R/R

Molecule: NC[C@H]1O[C@H](O[C@H]2[C@H](O)[C@@H](O[C@H]3O[C@H](CO)[C@@H](O)[C@H](N)[C@H]3O)[C@H](N)C[C@@H]2N)[C@H](N)C[C@@H]1O [Tobramycin]
- Final (sensitive/resistant call) (Ka02): R
- Vitek (sensitive/resistant call) (Ka02): R/I
- MIC [1]: 8 µg/mL (≈ 17.1 µM)

Molecule: O=C(N[C@H](CO)[C@H](O)c1ccc([N+](=O)[O-])cc1)C(Cl)Cl [Chloramphenicol]
- Final (sensitive/resistant call) (Ka02): R
- Vitek (sensitive/resistant call) (Ka02): R

Molecule: C[C@H]1[C@H](NC(=O)/C(=N\OC(C)(C)C(=O)O)c2csc(N)n2)C(=O)N1S(=O)(=O)O [Aztreonam]
- Final (sensitive/resistant call) (Ka02): R
- Vitek (sensitive/resistant call) (Ka02): R

Molecule: CCN1CCN(C(=O)N[C@@H](C(=O)N[C@@H]2C(=O)N3[C@@H]2SC(C)(C)[C@@H]3C(=O)O)c2ccccc2)C(=O)C1=O [Piperacillin]
- Final (sensitive/resistant call) (Ka02): R
- Vitek (sensitive/resistant call) (Ka02): R

Molecule: Trimethoprim-Sulfamethoxazole
- Final (sensitive/resistant call) (Ka02): R
- Vitek (sensitive/resistant call) (Ka02): R/R

Molecule: C[C@H]1COc2c(N3CCN(C)CC3)c(F)cc3c(=O)c(C(=O)O)cn1c23 [Levofloxacin]
- Final (sensitive/resistant call) (Ka02): R
- Vitek (sensitive/resistant call) (Ka02): R
- MIC [1]: ≥ 8 µg/mL

Molecule: C[C@@H](O)[C@H]1C(=O)N2C(C(=O)O)=C(S[C@@H]3CN[C@H](C(=O)N(C)C)C3)[C@H](C)[C@H]12 [Meropenem]
- Final (sensitive/resistant call) (Ka02): R
- Vitek (sensitive/resistant call) (Ka02): R/R

Molecule: O=C(O)c1cn(C2CC2)c2cc(N3CCNCC3)c(F)cc2c1=O [Ciprofloxacin]
- Final (sensitive/resistant call) (Ka02): R
- Vitek (sensitive/resistant call) (Ka02): R/R
- MIC [2]: 4 µg/mL (≈ 12.1 µM)
- MIC [1]: ≥ 4 µg/mL

Molecule: Amoxicillin/Calvulanic acid
- Final (sensitive/resistant call) (Ka02): R
- MIC site #2 (Ka02, Vitek, testing site #2): 32
- Vitek (sensitive/resistant call) (Ka02): R

Molecule: Colistin
- Final (sensitive/resistant call) (Ka02): S
- MIC site #2 (Ka02, Vitek, testing site #2): 2
- Vitek (sensitive/resistant call) (Ka02): S

Molecule: CO/N=C(\C(=O)N[C@@H]1C(=O)N2C(C(=O)O)=C(COC(C)=O)CS[C@H]12)c1csc(N)n1 [Cefotaxime]
- Final (sensitive/resistant call) (Ka02): R
- Vitek (sensitive/resistant call) (Ka02): R/R

Molecule: NCC[C@H](O)C(=O)N[C@@H]1C[C@H](N)[C@@H](O[C@H]2O[C@H](CN)[C@@H](O)[C@H](O)[C@H]2O)[C@H](O)[C@H]1O[C@H]1O[C@H](CO)[C@@H](O)[C@H](N)[C@H]1O [Amikacin]
- Final (sensitive/resistant call) (Ka02): S
- Vitek (sensitive/resistant call) (Ka02): S/S

Molecule: CC(C)(O/N=C(\C(=O)N[C@@H]1C(=O)N2C(C(=O)[O-])=C(C[n+]3ccccc3)CS[C@H]12)c1csc(N)n1)C(=O)O [Ceftazidime]
- Final (sensitive/resistant call) (Ka02): S-R
- Vitek (sensitive/resistant call) (Ka02): S/R
- MIC [2]: 8 µg/mL (≈ 14.6 µM)

Molecule: CN(C)c1cc(NC(=O)CNC(C)(C)C)c(O)c2c1C[C@H]1C[C@H]3[C@H](N(C)C)C(O)=C(C(N)=O)C(=O)[C@@]3(O)C(O)=C1C2=O [Tigecycline]
- Final (sensitive/resistant call) (Ka02): R
- Vitek (sensitive/resistant call) (Ka02): R
- MIC (read-out: MIC site #2): ≥ 8 µg/mL

Molecule: Ticracillin/CA
- Final (sensitive/resistant call) (Ka02): R
- Vitek (sensitive/resistant call) (Ka02): R

Molecule: Ampicillin/Sulbactam
- Final (sensitive/resistant call) (Ka02): R
- Vitek (sensitive/resistant call) (Ka02): R/R

Molecule: Gentamicin
- MIC site #2 (Ka02, Vitek, testing site #2): 4
- Vitek (sensitive/resistant call) (Ka02): R/S
